Active and inactive are the calls of the source. The calls are words filed in the database; no cut-off is given here.
Key:
[1] = tested on: Mus musculus; test: Neuroleptic activity in mouse assessed as inhibition of d-amphetamine sulfate-induced lethality at 20 mg/kg, ip administered for 0.5 hrs followed by d-amphetamine sulfate challenge measured after 24 hrs; format: functional, organism-based; design: dose 20 mg/kg
[2] = tested on: Rattus norvegicus; test: Neuroleptic activity in po dosed rat assessed as concentration required to cause 50% reduction of motor activity; format: functional
[3] = tested on: Mus musculus; test: Antidepressant activity in po dosed mouse assessed as inhibition of tetrabenazine hexamate-induced depression administered 1 hr followed by tetrabenazine hexamate challenge measured after 30 mins; format: functional; conditions: read-out: MED
[4] = tested on: Mus musculus; test: Antidepressant activity in mouse assessed as inhibition of tetrabenazine hexamate-induced depression at 25 mg/kg, po administered 1 hr followed by tetrabenazine hexamate challenge measured after 30 mins; format: functional, organism-based; design: dose 25 mg/kg
[5] = tested on: Mus musculus; test: Neuroleptic activity in po dosed mouse assessed as inhibition of d-amphetamine sulfate-induced lethality administered for 0.5 hrs followed by d-amphetamine sulfate challenge measured after 24 hrs; format: functional
[6] = tested on: Rattus norvegicus; test: Induction of catalepsy in po dosed rat measured for 0.5 to 18 hrs; format: organism-based; conditions: in vivo
[7] = tested on: Rattus norvegicus; test: Neuroleptic activity in rat assessed as reduction of motor activity at 50 mg/kg, ip; format: functional, organism-based; design: dose 50 mg/kg

Row | SMILES | inhibition [1] | MDD50 [2] [mg/kg] | minimal effective dose [3] [mg/kg] | inhibition [4] | ED50 [5] [mg/kg] | ED50 [6] [mg/kg] | Activity [7]
1 | CN1c2ccccc2N=C(N2CCN(CCO)CC2)c2cscc21.O=C(O)/C=C/C(=O)O | inactive | 21.3 | 12.5 | – | – | – | –
2 | CCN1CCN(C2=Nc3ccccc3N(CC)c3cscc32)CC1.O=C(O)/C=C/C(=O)O | – | 28 | 25 | – | – | – | –
3 | CCN1CCN(C2=Nc3ccccc3Nc3cscc32)CC1 | – | 6.3 | – | – | – | – | –
4 | CN1CCN(C2=Nc3cc(Cl)ccc3N(C)c3cscc32)CC1.O=C(O)/C=C/C(=O)O | – | 17 | – | inactive | 1.4 | 40 | –
5 | CN1CCN(C2=Nc3ccccc3Nc3cscc32)CC1 | – | 6.1 | – | – | 6 | 11 | –
6 | Cc1cc2c(cc1C)Nc1cscc1C(N1CCN(C)CC1)=N2 | – | 26.2 | – | – | – | – | –
7 | CN1CCN(C2=Nc3ccc(Cl)cc3Nc3cscc32)CC1 | inactive | 12.3 | – | – | – | 16 | –
8 | CCN1CCN(C2=Nc3cc(Cl)ccc3N(C)c3cscc32)CC1.O=C(O)/C=C/C(=O)O | – | 7.3 | – | inactive | 1.1 | – | –
9 | COc1ccc2c(c1)Nc1cscc1C(N1CCN(C)CC1)=N2 | – | 16.1 | – | – | 1.1 | 15 | –
10 | CN(C)CCCN1c2ccccc2Sc2ccc(Cl)cc21 [CHLORPROMAZINE] | – | 2 | – | inactive | 0.6 | 7 | –
11 | CCCN1CCN(C2=Nc3ccccc3Nc3cscc32)CC1 | – | 27 | – | – | 6 | – | –
12 | CCN1c2ccccc2N=C(N2CCN(CCO)CC2)c2cscc21.O=C(O)/C=C/C(=O)O | – | 50 | – | inactive | – | – | –
13 | Cc1cc2c(cc1C)Nc1cscc1C(NCCN1CCCCC1)=N2 | inactive | 50 | – | – | – | – | –
14 | CN1CCN(C2=Nc3cc(Cl)c(Cl)cc3N(C)c3cscc32)CC1.O=C(O)/C=C/C(=O)O | – | 35.9 | – | inactive | 8 | – | –
15 | c1ccc2c(c1)N=C(NCCN1CCCCC1)c1cscc1N2 | – | 37 | – | – | – | – | –
16 | CN1CCN(C2=Nc3ccccc3N(C)c3cscc32)CC1.O=C(O)/C=C/C(=O)O | – | 8.7 | 3.1 | – | 4.8 | – | –
17 | CCN1CCN(C2=Nc3ccccc3N(C)c3cscc32)CC1.O=C(O)/C=C/C(=O)O | – | – | 6.25 | – | – | – | –

Row | SMILES | inhibition [1] | MDD50 [2] [mg/kg] | minimal effective dose [3] [mg/kg] | inhibition [4] | ED50 [5] [mg/kg] | ED50 [6] [mg/kg] | Activity [7]
18 | OCCN1CCN(C2=Nc3ccccc3Nc3cscc32)CC1 | – | 33.1 | – | – | – | – | –
19 | CN1CCN(C2=Nc3ccccc3N(C)c3c2csc3Cl)CC1.O=C(O)/C=C/C(=O)O | inactive | – | 3.1 | – | – | – | inactive
20 | CN(C)C1=Nc2ccccc2Nc2cscc21 | – | 26.5 | – | – | – | – | –
21 | CN1c2ccccc2N=C(N2CCNCC2)c2cscc21.O=C(O)/C=C/C(=O)O | inactive | – | 3.1 | – | – | – | inactive
22 | CN1CCN(C2=Nc3cc(Cl)ccc3Nc3ccccc32)CC1 [CLOZAPINE] | – | 21 | – | inactive | 2 | 76 | –
23 | CN1CCN(C2=Nc3ccccc3N(C)c3cscc32)CC1 | – | 12 | 3.1 | – | 3.6 | 14 | –
24 | CCCN1CCN(C2=Nc3cc(Cl)ccc3N(C)c3cscc32)CC1.O=C(O)/C=C/C(=O)O | inactive | 24 | – | inactive | – | – | –
25 | CCN1c2ccccc2N=C(N2CCN(C)CC2)c2cscc21.O=C(O)/C=C/C(=O)O | – | 23 | 6.25 | – | 5.7 | – | –
26 | Cc1cc2c(cc1C)N(C)c1cscc1C(N1CCN(C)CC1)=N2.O=C(O)/C=C/C(=O)O | inactive | 58 | – | inactive | – | – | –
27 | Cc1ccc2c(c1)Nc1cscc1C(N1CCN(C)CC1)=N2 | – | 9 | – | – | 5.8 | – | –
28 | CC(=O)OCCN1CCN(C2=Nc3cc(Cl)ccc3N(C)c3cscc32)CC1.O=C(O)/C=C/C(=O)O | – | 26.7 | – | inactive | 3.2 | – | –
29 | CN1c2ccc(Cl)cc2N=C(N2CCN(CCO)CC2)c2cscc21.Cl | – | 20.4 | – | inactive | 2 | 13 | –
30 | CN(C)CCCN1c2ccccc2CCc2ccccc21 [IMIPRAMINE] | – | >50 | 12 | – | > 20 | – | –
31 | CN1CCN(C2=Nc3ccc(Cl)cc3N(C)c3cscc32)CC1 | inactive | – | 12.5 | – | – | – | –
32 | CN1CCN(C2=Nc3cc(Cl)ccc3Nc3cscc32)CC1 | – | 13.9 | – | – | – | 16 | –
33 | Cc1cc2c(cc1C)Nc1cscc1C(N1CCCCC1)=N2 | inactive | 50 | – | – | – | – | –
